From PubChem BioAssay AID2060603 (Molecular Pharmacology Branch, DTP, NCI, 2025)

Test system: 422866-222-R5-J1-PDC spheroid viability
Assay: Anticancer human tumor 422866-222-R5-J1-PDC patient-derived pancreatic adenocarcinoma cell line growth inhibition [CLK]
Settings: spheroids with HUVEC and MSC; for IC50: curve of first compound; for viability, T/C: stronger effect = lower value; active = viability on the fitted dose curve at most 10% of control; inactive = the rest
Method in brief: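 Patient-derived tumor cells grown as complex spheroids with HUVEC endothelial cells and mesenchymal stem cells, treated with drug combinations. Concentrations descend in half-log steps from near clinical Cmax, or from 10 microM if Cmax unknown.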

[1] = second compound 0.0316 µM, first compound 0.0316 µM
[2] = second compound 0.0316 µM, first compound 0.1 µM
[3] = second compound 0.0316 µM, first compound 0.316 µM
[4] = second compound 0.0316 µM, first compound 1 µM
[5] = second compound 0.0316 µM, first compound 3.16 µM
[6] = second compound 0.0316 µM, first compound 10 µM
[7] = second compound 0.1 µM, first compound 0.0316 µM
[8] = second compound 0.1 µM, first compound 0.1 µM
[9] = second compound 0.1 µM, first compound 0.316 µM
[10] = second compound 0.1 µM, first compound 1 µM
[11] = second compound 0.1 µM, first compound 3.16 µM
[12] = second compound 0.1 µM, first compound 10 µM
[13] = second compound 0.316 µM, first compound 0.0316 µM
[14] = second compound 0.316 µM, first compound 0.1 µM
[15] = second compound 0.316 µM, first compound 0.316 µM
[16] = second compound 0.316 µM, first compound 1 µM
[17] = second compound 0.316 µM, first compound 3.16 µM
[18] = second compound 0.316 µM, first compound 10 µM
[19] = second compound 1 µM, first compound 0.0316 µM
[20] = second compound 1 µM, first compound 0.1 µM
[21] = second compound 1 µM, first compound 0.316 µM
[22] = second compound 1 µM, first compound 1 µM
[23] = second compound 1 µM, first compound 3.16 µM
[24] = second compound 1 µM, first compound 10 µM
[25] = second compound 3.16 µM, first compound 0.0316 µM
[26] = second compound 3.16 µM, first compound 0.1 µM
[27] = second compound 3.16 µM, first compound 0.316 µM
[28] = second compound 3.16 µM, first compound 1 µM
[29] = second compound 3.16 µM, first compound 3.16 µM
[30] = second compound 3.16 µM, first compound 10 µM
[31] = second compound 10 µM, first compound 0.0316 µM
[32] = second compound 10 µM, first compound 0.1 µM
[33] = second compound 10 µM, first compound 0.316 µM
[34] = second compound 10 µM, first compound 1 µM
[35] = second compound 10 µM, first compound 3.16 µM
[36] = second compound 10 µM, first compound 10 µM
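Also: spheroids exposed to agents for seven days before readout.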

CC1(C)CCC(CN2CCN(c3ccc(C(=O)NS(=O)(=O)c4ccc(NCC5CCOCC5)c([N+](=O)[O-])c4)c(Oc4cnc5[nH]ccc5c4)c3)CC2)=C(c2ccc(Cl)cc2)C1 + CN1CCN(c2cc(C(=O)Nc3cc4cc(-c5cnn(C)c5)ccc4cn3)ccn2)CC1
> 10000 nM: IC50 (second compound 0.0316 µM) | IC50 (second compound 0.1 µM)
7960 nM: IC50 (second compound 0.316 µM)
active: viability, T/C [27] 8.93% | viability, T/C [28] 9.29% | viability, T/C [29] 8.57% | viability, T/C [30] 0.67% | viability, T/C [31] 3.46% | viability, T/C [32] 3.09% | viability, T/C [33] 2.86% | viability, T/C [34] 1.74% | viability, T/C [35] 2.12% | viability, T/C [36] 1.57%
< 31.6 nM: IC50 (second compound 1 µM) | IC50 (second compound 3.16 µM) | IC50 (second compound 10 µM)
inactive: viability, T/C [1] 105% | viability, T/C [2] 104% | viability, T/C [3] 101% | viability, T/C [4] 115% | viability, T/C [5] 113% | viability, T/C [6] 69.3% | viability, T/C [7] 111% | viability, T/C [8] 117% | viability, T/C [9] 105% | viability, T/C [10] 109% | viability, T/C [11] 95.8% | viability, T/C [12] 58.3% | viability, T/C [13] 89.2% | viability, T/C [14] 107% | viability, T/C [15] 96.5% | viability, T/C [16] 91.2% | viability, T/C [17] 91.9% | viability, T/C [18] 39.6% | viability, T/C [19] 26.1% | viability, T/C [20] 26.1% | viability, T/C [21] 22.1% | viability, T/C [22] 27.5% | viability, T/C [23] 25.1% | viability, T/C [24] 12.1% | viability, T/C [25] 11.2% | viability, T/C [26] 10.1%

NC(=O)C(=Cn1cnc(-c2cc(C(F)(F)F)cc(C(F)(F)F)c2)n1)c1cncnc1 + CN1CCN(c2cc(C(=O)Nc3cc4cc(-c5cnn(C)c5)ccc4cn3)ccn2)CC1
55.8 nM: IC50 (second compound 0.316 µM)
inactive: viability, T/C (second compound 0.0316 µM, first compound 0.00949 µM) 123% | viability, T/C (second compound 0.0316 µM, first compound 0.03 µM) 117% | viability, T/C (second compound 0.0316 µM, first compound 0.0949 µM) 80% | viability, T/C (second compound 0.0316 µM, first compound 0.3 µM) 48.4% | viability, T/C (second compound 0.0316 µM, first compound 0.949 µM) 66.3% | viability, T/C (second compound 0.0316 µM, first compound 3 µM) 78.4% | viability, T/C (second compound 0.1 µM, first compound 0.00949 µM) 110% | viability, T/C (second compound 0.1 µM, first compound 0.03 µM) 94.6% | viability, T/C (second compound 0.1 µM, first compound 0.0949 µM) 73.8% | viability, T/C (second compound 0.1 µM, first compound 0.3 µM) 32.1% | viability, T/C (second compound 0.1 µM, first compound 0.949 µM) 55.6% | viability, T/C (second compound 0.1 µM, first compound 3 µM) 67.4% | viability, T/C (second compound 0.316 µM, first compound 0.00949 µM) 66.5% | viability, T/C (second compound 0.316 µM, first compound 0.03 µM) 63.8% | viability, T/C (second compound 0.316 µM, first compound 0.0949 µM) 38.2% | viability, T/C (second compound 0.316 µM, first compound 0.3 µM) 21.9% | viability, T/C (second compound 0.316 µM, first compound 0.949 µM) 21% | viability, T/C (second compound 0.316 µM, first compound 3 µM) 20.9% | viability, T/C (second compound 1 µM, first compound 0.00949 µM) 15.6% | viability, T/C (second compound 1 µM, first compound 0.03 µM) 14.2% | viability, T/C (second compound 1 µM, first compound 0.0949 µM) 15.1% | viability, T/C (second compound 1 µM, first compound 0.3 µM) 22.4% | viability, T/C (second compound 1 µM, first compound 0.949 µM) 22.9% | viability, T/C (second compound 1 µM, first compound 3 µM) 14.5% | viability, T/C (second compound 3.16 µM, first compound 0.00949 µM) 12.9% | viability, T/C (second compound 3.16 µM, first compound 0.03 µM) 15.1% | viability, T/C (second compound 3.16 µM, first compound 0.0949 µM) 18.3% | viability, T/C (second compound 3.16 µM, first compound 0.3 µM) 18.9% | viability, T/C (second compound 3.16 µM, first compound 0.949 µM) 19.9% | viability, T/C (second compound 3.16 µM, first compound 3 µM) 18.5%
> 3000 nM: IC50 (second compound 0.0316 µM) | IC50 (second compound 0.1 µM)
< 9.49 nM: IC50 (second compound 1 µM) | IC50 (second compound 3.16 µM) | IC50 (second compound 10 µM)
active: viability, T/C (second compound 10 µM, first compound 0.00949 µM) 2.84% | viability, T/C (second compound 10 µM, first compound 0.03 µM) 1.47% | viability, T/C (second compound 10 µM, first compound 0.0949 µM) 2.11% | viability, T/C (second compound 10 µM, first compound 0.3 µM) 1.91% | viability, T/C (second compound 10 µM, first compound 0.949 µM) 6.33% | viability, T/C (second compound 10 µM, first compound 3 µM) 9.39%

Nc1ccccc1NC(=O)c1ccc(CNC(=O)OCc2cccnc2)cc1 + CN1CCN(c2cc(C(=O)Nc3cc4cc(-c5cnn(C)c5)ccc4cn3)ccn2)CC1
2380 nM: IC50 (second compound 0.316 µM)
< 31.6 nM: IC50 (second compound 1 µM) | IC50 (second compound 3.16 µM) | IC50 (second compound 10 µM)
active: viability, T/C [23] 4.32% | viability, T/C [24] 5.2% | viability, T/C [25] 8.75% | viability, T/C [26] 8.34% | viability, T/C [27] 4.74% | viability, T/C [28] 4.04% | viability, T/C [29] 3.26% | viability, T/C [30] 8.29% | viability, T/C [31] 2.62% | viability, T/C [32] 1.81% | viability, T/C [33] 1.37% | viability, T/C [34] 1.01% | viability, T/C [35] 2.34% | viability, T/C [36] 4.45%
> 10000 nM: IC50 (second compound 0.0316 µM) | IC50 (second compound 0.1 µM)
inactive: viability, T/C [1] 121% | viability, T/C [2] 137% | viability, T/C [3] 121% | viability, T/C [4] 114% | viability, T/C [5] 75.8% | viability, T/C [6] 60.4% | viability, T/C [7] 135% | viability, T/C [8] 118% | viability, T/C [9] 121% | viability, T/C [10] 96.6% | viability, T/C [11] 74.5% | viability, T/C [12] 62.6% | viability, T/C [13] 106% | viability, T/C [14] 95.5% | viability, T/C [15] 91.1% | viability, T/C [16] 62.5% | viability, T/C [17] 46.9% | viability, T/C [18] 19.5% | viability, T/C [19] 28.4% | viability, T/C [20] 28.6% | viability, T/C [21] 25.6% | viability, T/C [22] 16.1%
